Reference: patent publication US7432299B2, “Method of treatment for sexual dysfunction” (Pfizer Inc., priority 2002, dated 2008)

How the values were obtained:
[1] = test system: PCA-induced ejaculation in anaesthetised rats; assay: p-chloroamphetamine (PCA)-induced ejaculation in anaesthetised rat model of premature ejaculation; assay type: in vivo; details: for animals that failed to ejaculate within 30 minutes: assigned ejaculatory latency of 1800 s
Method: In order to study penile erection and ejaculation the method used was based on the methodology taught in Yonezawa et al (2000) Life Sciences 67, 3031-3039. For ease of reference, this methodology is described below:
Male Sprague Dawley rats, weighing 350-450 g, are used. Prior to the experiments the animals are housed in groups (2 rats per cage) under controlled 12 h light-dark cycle (lights on at 07:00), constant temperature (23±1° C.) and humidity (55±5%). They have free access to standard food pellets and water.
Rats are anesthestised with sodium pentobarbitone (50 mg/kg, i.p.) and are placed in the supine position. The penis is extruded from its sheath and gently held by a wooden applicator positioned at the base of the penis. The test compounds are administered orally and p-chloroamphetamine (PCA) (5-10 mg/kg) is administered i.p. immediately before the sheath retraction and the penile responses, including penile erection, redding and expansion of the penile body, glans erection, engorgement and slight flaring of the glans and cup, glans erection with intense flaring of the glans, are recorded in the presence of test compound or vehicle. Latencies from PCA administration to the initial penile response and ejaculation is also measured in seconds in the presence of test compound or vehicle.
Compound (XI) was dosed orally and was tested at 1, 3, 10 or 30 mg/kg po, 60 min prior to PCA administration).

[2] = test system: rapid ejaculating rats; assay: Copulatory behaviour in rapid ejaculating conscious rats (model of premature ejaculation); assay type: in vivo, rat
Method: For all the sexual behavour tests, the rapid ejaculating male rats were used as an animal model of premature ejaculation (classified as ejaculatory latency <300 s during baseline assessment). Rapid ejaculating rats were placed in an observation arena (50-60 cm diameter), starting 5 hours into the dark cycle and observed under red ilumination. Three to four minutes after placing the male in the arena, a receptive female (ovariectomised, oestradiol benzoate/progesterone injection 48 hour before behavioural study) was introduced into the arena and the following parameters noted: • i) ejaculatory latency (EJL; time taken from addition of receptive female into the arena to ejaculation); • ii) copulatory efficiency (CE; ejaculatory latency/the number of intromissions to ejaculation, i.e. the number of seconds between intromissions); • iii) intromission frequency (IF; the number of intromissions to ejaculation); • iv) mount frequency (MF; the number of mounts to ejaculation); • v) post ejaculatory interval (PEI; the time taken from ejaculation to the commencement of copulatory behaviour). The Compound Used in the Following Examples was as Follows:
Rodent copulatory behaviour is characterised by a series of mounts, with and without vaginal insertion (50-80% of mounts result in intromission [vaginal penetration]) and ejaculation occurs after 6 to 12 intromissions. Each intromission lasts a matter of seconds—it is not possible to quantify intromission length i.e. intravaginal latency. The effect of Compound (XI) was assessed on a number of copulatory parameters (see above). We have focused ejaculatory latency as a clinical biomarker of time taken to achieve ejaculation. The study was performed in rapid ejaculating rats as a model of premature ejaculation (rats characterised by ejaculatory latency <300 s at baseline).
Compound (XI), an alpha-2-delta ligand, increased ejaculatory latency by 58% in rapidly-ejaculating conscious rats (P<0.01); i.e. Compound (XI) (10 mg/kg, 60 min post oral dosing)-treated animals took 219 s to ejaculate compared to 139 s in vehicle treated animals (see Table 2 below).

NC[C@]1(CC(=O)O)C[C@H]2CCC[C@H]21 [Compound (XI), (1R,5R,6S)-[6-(Aminomethyl)bicyclo[3.2.0]hept-6-yl]acetic acid]
animals that failed to ejaculate within 30 minutes ([1]; 3 mg/kg po): 3 out of 7
time taken to achieve erection ([1]; 10 mg/kg po): small delay
animals that failed to ejaculate within 30 minutes ([1]; 10 mg/kg po): 3 out of 7
time taken to achieve erection ([1]; 30 mg/kg po): small delay
p-chloroamphetamine (PCA)-induced ejaculation ([1]; anaesthetised rats, 1, 3, 10 or 30 mg/kg po, 60 min prior to PCA administration): significantly delayed
quality of erection ([1]; anaesthetised rats, 1-30 mg/kg po): not influenced
increase of ejaculatory latency ([1]; anaesthetised rats, dose-dependent, 1-30 mg/kg po, 60 min prior to PCA): up to 250%
ejaculatory latency ([1]; anaesthetised rats, doses above 3 mg/kg po, vehicle circa 300 s): circa 1000 s
ejaculatory latency ([2]; 10 mg/kg po, mean ± sem (n = 6), P < 0.01): 219 ± 26 s
other effects on copulatory behaviour ([2]; rapidly-ejaculating conscious rats, 10 mg/kg po): no other significant effects
increase of ejaculatory latency ([2]; rapidly-ejaculating conscious rats, 10 mg/kg, 60 min post oral dosing, P<0.01): 58%
time to ejaculate (ejaculatory latency) ([2]; rapidly-ejaculating conscious rats, 10 mg/kg, 60 min post oral dosing, vehicle 139 s): 219 s
